{"source": "paper PMC12117998", "about": "“First Steps toward the Design of Peptides that Influence the Intracellular Palmitoylation Machinery” (Chembiochem, 2025)", "key": {"[1]": {"system": "HeLa cells", "assay": "Cellular uptake by flow cytometry", "assay_type": "cell-based", "protocol": "(§1) HeLa (90,000), MDA‐MB‐231 (120,000), and HFF‐1 (125,000) cells were seeded into a 24‐well plate. Cells were treated with the desired concentration of CF‐labeled peptide diluted in the appropriate serum‐free medium for 30 min at 37 °C and 5% CO2. Afterward, cells were washed once with PBS, detached from the plate using indicator‐free trypsin/EDTA and resuspended in indicator‐free culture medium. The cell mixture was measured on the Guava easyCyte flow cytometer (Merck) using the GRN‐B (520/30) detector.\nCMA was synthesized and kindly provided by Azizi et al.^[ [33] ^] Cells were either treated with 20 μM CMA diluted in serum‐free media or 0.1% DMSO diluted in serum‐free media for 6 h at 37 °C with 5% CO2. Next, cells were washed once with serum‐free medium and 5 μM CF‐labeled peptides diluted in serum‐free medium were incubated for 30 min. Control cells were only treated with dimethylsulfoxide (DMSO) or 20 μM CMA.\nFor the preincubation assay, cells were either treated with 5 μM DC‐2 diluted in serum‐free medium or only serum‐free medium for 30 min at 37 °C and 5% CO2. Afterward, cells were washed once with serum‐free medium and treated with 5 μM CF‐labeled DC‐2 for 30 min at 37 °C and 5% CO2.\nTo block cell surface thiols, cells were incubated with either serum‐free medium or 1.2 mM 5,5′‐dithiobis‐(2‐nitrobenzoic acid) (Ellman's reagent, DTNB) diluted in serum‐free medium for 5 min. Next, untreated cells were treated with 1 μM of CF‐labeled DC‐2 or DC‐2dis diluted in serum‐free medium and DTNB‐pretreated cells with 1 μM of CF‐labeled DC‐2 or DC‐2dis and 1.2 mM DTNB in serum‐free medium for 30 min at 37 °C and 5% CO2 as described by Aubry et al.^[ [47] ^]"}, "[2]": {"system": "HeLa cells", "assay": "Co‐localization studies (confocal microscopy, PCC and MOC)", "assay_type": "cell-based", "settings": "2 h, 5 μM CF‐DC‐2, CellLight ER‐RFP, mean ± SD of ≥37 cells, n = 2", "protocol": "HeLa cells (30,000–40,000) were seeded into an 8‐well ibidi. For lysosomal and lipid droplet analysis, cells were treated for 30 min with 5 μM of CF‐labeled peptide combined with either 100 nM LysoTracker Red DND‐99 (Invitrogen) or a 1:1000 solution of distyryl Bodipy lipid droplet stain synthesized and kindly provided by Engelhardt et al.^[ [67] ^] diluted in serum‐free media under standard growth conditions. For Golgi analysis, cells were treated for 2 h with 5 μM CF‐labeled peptide under standard growth conditions. For the last 30 min of the incubation period, 1:100 BODIPY TR ceramide complexed to bovine serum albumine (BSA) (Invitrogen) was directly diluted into the well and incubated for the last 30 min together with the peptide. For ER staining, CellLight ER‐RFP, BacMam 2.0 (Invitrogen), was added to the cells and incubated overnight under standard growth conditions. The next day, the cells were treated for 2 h with 5 μM CF‐labeled peptides as described earlier. After the peptide and stain incubation, cells were washed three to four times with serum‐free medium. […] Pearson and Manders’ Coefficients were calculated using the JaCoP analysis tool.^[ [68] ^] For Golgi analysis, no PCC or MOC was determined as the unedited images contained a strong background signal."}, "[3]": {"system": "HFF‐1 cells", "assay": "Cell viability assay (resazurin)", "assay_type": "cell-based, human", "settings": "HFF‐1, 24 h, CF‐labeled peptides, n = 3 (Figure 3C)", "protocol": "HeLa (13,000), MDA‐MB‐231 (26,000), HFF‐1 (16,000) cells, mEGFP‐HRas (18,000), and SW480 and SW620 (15,000) were seeded into a 96‐well plate. Cells were treated with suitable peptide concentrations diluted in the corresponding serum‐free culture medium. After 24 h incubation under standard growth conditions, the cells were washed once with PBS. The positive control was treated for 10 min with 70% EtOH. To test the viability, cells were treated with a resazurin solution (In Vitro Toxicology Assay Kit, resazurin based, Sigma) and incubated for a further 1–2 h. The product resorufin was measured at 595 nm (λex = 550 nm) on an infinite M200 plate reader (Tecan) and normalized to the untreated negative control cells."}, "[4]": {"system": "MDA‐MB‐231", "assay": "Cellular uptake by flow cytometry", "assay_type": "cell-based", "settings": "MDA‐MB‐231, 30 min, 5 μM CF‐labeled peptides, serum-free medium, 37 °C, n ≥ 3 (Figure 3E)", "protocol": "as §1"}}, "note": "No end group written: not given here.", "data": [{"substance": "GLRKRLRKFRNKKMDHHCPW-NH2 [DC‐2, CPP sC18* fused to the DHHC motif derived from ZDHHC2/3/6/7/15/16/20]", "values": [{"measurement": "effect of blocking cell surface thiols (DTNB) on cellular uptake", "setting": "[1]; 5 min 1.2 mM DTNB, then 1 μM CF‐labeled peptide with DTNB 30 min, flow cytometry, n = 3 (Figure S8C)", "result": "no significant difference"}, {"measurement": "effect of pretreatment with unlabeled DC‐2 on peptide uptake", "setting": "[1]; 30 min 5 μM unlabeled DC‐2, then 30 min 5 μM CF‐DC‐2, flow cytometry, n = 3 (Figure S5E)", "result": "no significant difference in the quantity of peptide uptake"}, {"measurement": "cellular uptake in medium lacking L‐cystine", "setting": "[1]; 30 min, 5 µM CF-DC-2, flow cytometry, n = 3 (Figure S8B)", "result": "slightly increased"}, {"measurement": "cellular uptake (in words)", "setting": "[1]; 30 min, 5 μM CF‐labeled peptides, serum-free medium, 37 °C, flow cytometry, n ≥ 3 (Figure 3D, 5C)", "result": "internalized to a higher extent compared to DC‐4"}, {"measurement": "Mander's overlap coefficient (MOC), ER", "setting": "[2]", "result": "0.60 ± 0.20"}, {"measurement": "Pearson correlation coefficient (PCC), ER", "setting": "[2]", "result": "0.37 ± 0.10"}, {"measurement": "cytotoxicity (cell viability)", "setting": "[3]", "result": "most active peptide"}, {"measurement": "cellular uptake (in words)", "setting": "[4]", "result": "internalized to a higher extent compared to DC‐4"}]}]}
